{"source": "PubChem BioAssay AID330", "about": "(DTP/NCI, 2004)", "system": "P388 leukemia ip, CD2F1 mice, survival T/C", "test": "NCI In Vivo Anticancer Drug Screen. Data for tumor model P388 Leukemia (intraperitoneal) in CD2F1 (CDF1) mice", "settings": "endpoint: median survival time, higher = longer survival", "outline": "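Mice carrying the transplanted tumor received test compound or vehicle. Survival was recorded in each group, and the value is the treated-group measurement divided by that of the vehicle-treated control group.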", "key": {"[1]": {"settings": "dose: 50.0 mg/kg/injection, schedule: Q01DX005 (ip), vehicle: Klucel (hydroxypropylcellulose) (HPC)"}, "[2]": {"settings": "dose: 200.0 mg/kg/injection, schedule: Q01DX005 (ip), vehicle: Klucel (hydroxypropylcellulose) (HPC)"}, "[3]": {"settings": "dose: 50.0 mg/kg/injection, schedule: Q01DX009 (ip), vehicle: saline with Tween-80"}, "[4]": {"settings": "dose: 100.0 mg/kg/injection, schedule: Q01DX009 (ip), vehicle: saline with Tween-80"}, "[5]": {"settings": "dose: 200.0 mg/kg/injection, schedule: Q01DX009 (ip), vehicle: saline with Tween-80"}, "[6]": {"settings": "dose: 100.0 mg/kg/injection, schedule: Q01DX009 (ip), vehicle: saline"}, "[7]": {"settings": "dose: 100.0 mg/kg/injection, schedule: Q01DX001 (ip), vehicle: saline with Tween-80"}, "[8]": {"settings": "dose: 12.5 mg/kg/injection, schedule: Q01DX009 (ip), vehicle: saline"}, "[9]": {"settings": "dose: 25.0 mg/kg/injection, schedule: Q01DX009 (ip), vehicle: saline"}}, "note": "Several values for one entry are separate records, joined by “and”; a condition that tells them apart may be missing. Equal entries are not always repeated. Inconclusive results and toxic doses are left out.", "data": [{"smiles": "Cc1nnc2cc1CCCCCCCCC2", "values": [{"measurement": "T/C", "setting": "[1]", "value": "108 % of control"}, {"measurement": "T/C", "setting": "dose: 100.0 mg/kg/injection, schedule: Q01DX005 (ip), vehicle: Klucel (hydroxypropylcellulose) (HPC)", "value": "107 % of control"}, {"measurement": "T/C", "setting": "[2]", "value": "103 % of control"}]}, {"smiles": "[O-][n+]1ccccc1[S][Sn]([Cl])([Cl])[S]c1cccc[n+]1[O-]", "values": [{"measurement": "T/C", "setting": "[3]", "value": "94 % of control"}, {"measurement": "T/C", "setting": "[4]", "value": "106 % of control"}, {"measurement": "T/C", "setting": "[5]", "value": "102 % of control"}]}, {"smiles": "O=C(N/C(=C\\c1ccccc1)C(=O)N1CCN(Cc2ccccc2)CC1)c1ccccc1", "values": [{"measurement": "T/C", "setting": "dose: 50.0 mg/kg/injection, schedule: Q01DX005 (ip), vehicle: saline with Tween-80", "value": "89 % of control"}, {"measurement": "T/C", "setting": "dose: 100.0 mg/kg/injection, schedule: Q01DX005 (ip), vehicle: saline with Tween-80", "value": "88 % of control"}]}, {"smiles": "CC(C)CC(=O)Nc1ccc(S(=O)(=O)Cl)cc1", "values": [{"measurement": "T/C", "setting": "[6]", "value": "100 % of control"}, {"measurement": "T/C", "setting": "dose: 200.0 mg/kg/injection, schedule: Q01DX009 (ip), vehicle: saline", "value": "90 % of control"}, {"measurement": "T/C", "setting": "dose: 400.0 mg/kg/injection, schedule: Q01DX009 (ip), vehicle: saline", "value": "90 % of control"}]}, {"smiles": "CC(c1ccccc1)N1C(=O)CSC1=S", "note": "(centres undefined)", "values": [{"measurement": "T/C", "setting": "dose: 25.0 mg/kg/injection, schedule: Q01DX009 (ip), vehicle: saline with Tween-80", "value": "100 % of control"}, {"measurement": "T/C", "setting": "[3]", "value": "100 % of control"}, {"measurement": "T/C", "setting": "[4]", "value": "100 % of control"}, {"measurement": "T/C", "setting": "[5]", "value": "100 % of control"}]}, {"smiles": "CCCCCCOCCOCCCN1C(=O)C2C3C=CC(C3)C2(Cl)C1=O", "note": "(centres undefined)", "values": [{"measurement": "T/C", "setting": "dose: 50.0 mg/kg/injection, schedule: Q01DX005 (ip), vehicle: distilled water + Tween-80 + alcohol", "value": "102 % of control"}, {"measurement": "T/C", "setting": "dose: 100.0 mg/kg/injection, schedule: Q01DX005 (ip), vehicle: distilled water + Tween-80 + alcohol", "value": "105 % of control"}, {"measurement": "T/C", "setting": "dose: 200.0 mg/kg/injection, schedule: Q01DX005 (ip), vehicle: distilled water + Tween-80 + alcohol", "value": "100 % of control"}]}, {"smiles": "CCCCCCCCCCCC(CCCCCCCCCC)CCCCCCCCCC", "values": [{"measurement": "T/C", "setting": "dose: 50.0 mg/kg/injection, schedule: Q01DX001 (ip), vehicle: saline with Tween-80", "value": "109 % of control"}, {"measurement": "T/C", "setting": "[7]", "value": "104 % of control"}, {"measurement": "T/C", "setting": "dose: 200.0 mg/kg/injection, schedule: Q01DX001 (ip), vehicle: saline with Tween-80", "value": "100 % of control"}]}, {"smiles": "COc1ccc(Cc2cc3c(cc2OC)OCO3)c(OC)c1", "values": [{"measurement": "T/C", "setting": "dose: 60.0 mg/kg/injection, schedule: Q01DX005 (ip), vehicle: saline with Tween-80", "value": "100 % of control"}, {"measurement": "T/C", "setting": "dose: 120.0 mg/kg/injection, schedule: Q01DX005 (ip), vehicle: saline with Tween-80", "value": "108 % of control"}, {"measurement": "T/C", "setting": "dose: 240.0 mg/kg/injection, schedule: Q01DX005 (ip), vehicle: saline with Tween-80", "value": "112 % of control"}]}, {"smiles": "c1n[nH]c2c1CCCC2", "values": [{"measurement": "T/C", "setting": "[8]", "value": "96 % of control"}, {"measurement": "T/C", "setting": "[9]", "value": "105 % of control"}, {"measurement": "T/C", "setting": "dose: 50.0 mg/kg/injection, schedule: Q01DX009 (ip), vehicle: saline", "value": "91 % of control"}, {"measurement": "T/C", "setting": "[6]", "value": "104 % of control"}]}, {"smiles": "ClCCN(CCCl)c1ccc(N=Cc2ccccc2)cc1", "values": [{"measurement": "T/C", "setting": "dose: 1.56 mg/kg/injection, schedule: Q01DX009 (ip), vehicle: saline with Tween-80", "value": "159 % of control and 167 % of control"}, {"measurement": "T/C", "setting": "dose: 3.12 mg/kg/injection, schedule: Q01DX009 (ip), vehicle: saline with Tween-80", "value": "179 % of control and 205 % of control"}, {"measurement": "T/C", "setting": "dose: 6.25 mg/kg/injection, schedule: Q01DX009 (ip), vehicle: saline with Tween-80", "value": "230 % of control"}]}, {"smiles": "CCCCn1ccnc1C", "values": [{"measurement": "T/C", "setting": "dose: 6.25 mg/kg/injection, schedule: Q01DX009 (ip), vehicle: saline", "value": "109 % of control"}, {"measurement": "T/C", "setting": "[8]", "value": "91 % of control"}, {"measurement": "T/C", "setting": "[9]", "value": "103 % of control"}]}, {"smiles": "C1Cc2[nH]nc(-c3n[nH]c4c3CCC4)c2C1", "values": [{"measurement": "T/C", "setting": "dose: 60.0 mg/kg/injection, schedule: Q01DX005 (ip), vehicle: saline", "value": "97 % of control"}, {"measurement": "T/C", "setting": "dose: 120.0 mg/kg/injection, schedule: Q01DX005 (ip), vehicle: saline", "value": "97 % of control"}, {"measurement": "T/C", "setting": "dose: 240.0 mg/kg/injection, schedule: Q01DX005 (ip), vehicle: saline", "value": "97 % of control"}]}, {"smiles": "COc1ccc2cc3[n+](cc2c1O)CCc1cc2c(cc1-3)OCO2", "values": [{"measurement": "T/C", "setting": "dose: 6.25 mg/kg/injection, schedule: Q01DX005 (ip), vehicle: Klucel (hydroxypropylcellulose) (HPC)", "value": "99 % of control and 106 % of control"}, {"measurement": "T/C", "setting": "dose: 12.5 mg/kg/injection, schedule: Q01DX005 (ip), vehicle: Klucel (hydroxypropylcellulose) (HPC)", "value": "107 % of control and 96 % of control"}, {"measurement": "T/C", "setting": "dose: 25.0 mg/kg/injection, schedule: Q01DX005 (ip), vehicle: Klucel (hydroxypropylcellulose) (HPC)", "value": "101 % of control and 117 % of control"}, {"measurement": "T/C", "setting": "[1]", "value": "111 % of control"}, {"measurement": "T/C", "setting": "[2]", "value": "179 % of control"}]}, {"smiles": "CCCCn1c(Cl)c(/C=N\\Nc2ccc([N+](=O)[O-])cc2)c2ccccc21", "values": [{"measurement": "T/C", "setting": "dose: 25.0 mg/kg/injection, schedule: Q01DX001 (ip), vehicle: saline with Tween-80", "value": "86 % of control"}, {"measurement": "T/C", "setting": "[7]", "value": "103 % of control and 94 % of control"}]}]}
